In PubChem BioAssay AID248 (DTP/NCI, 2004):
Several values for one entry are separate records, joined by “and”; a condition that tells them apart may be missing. Equal entries are not always repeated. Inconclusive results and toxic doses are left out. Rule as the data show it: active = T/C of 150% or more; inactive = T/C below 125%.

Tested on: L1210 leukemia ip in BDF1 mice, survival T/C
Test: NCI In Vivo Anticancer Drug Screen. Data for tumor model L1210 Leukemia (intraperitoneal) in B6D2F1 (BDF1) mice
Details: endpoint: mean survival time, higher = longer survival
Method in brief: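 Transplanted-tumor mice were given test agent; controls received vehicle only. Survival readings from the two groups were divided (treated over control).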

[1] = dose: 100.0 mg/kg/injection, schedule: Q01DX009 (ip), vehicle: Klucel (hydroxypropylcellulose) (HPC)
[2] = dose: 100.0 mg/kg/injection, schedule: Q04DX003 (ip), vehicle: Klucel (hydroxypropylcellulose) (HPC)
[3] = dose: 200.0 mg/kg/injection, schedule: Q01DX009 (ip), vehicle: Klucel (hydroxypropylcellulose) (HPC)
[4] = dose: 200.0 mg/kg/injection, schedule: Q04DX003 (ip), vehicle: Klucel (hydroxypropylcellulose) (HPC)
[5] = dose: 400.0 mg/kg/injection, schedule: Q01DX009 (ip), vehicle: Klucel (hydroxypropylcellulose) (HPC)
[6] = dose: 400.0 mg/kg/injection, schedule: Q04DX003 (ip), vehicle: Klucel (hydroxypropylcellulose) (HPC)
[7] = dose: 50.0 mg/kg/injection, schedule: Q01DX009 (ip), vehicle: Klucel (hydroxypropylcellulose) (HPC)
[8] = dose: 100.0 mg/kg/injection, schedule: Q04DX002 (ip), vehicle: Klucel (hydroxypropylcellulose) (HPC)
[9] = dose: 100.0 mg/kg/injection, schedule: Q01DX001 (ip), vehicle: saline
[10] = dose: 200.0 mg/kg/injection, schedule: Q01DX001 (ip), vehicle: saline
[11] = dose: 400.0 mg/kg/injection, schedule: Q01DX001 (ip), vehicle: saline
[12] = dose: 100.0 mg/kg/injection, schedule: Q01DX001 (ip), vehicle: carboxymethylcellulose (CMC)
[13] = dose: 200.0 mg/kg/injection, schedule: Q01DX001 (ip), vehicle: carboxymethylcellulose (CMC)
[14] = dose: 400.0 mg/kg/injection, schedule: Q01DX001 (ip), vehicle: carboxymethylcellulose (CMC)
[15] = dose: 100.0 mg/kg/injection, schedule: Q04DX003 (ip), vehicle: saline with Tween-80
[16] = dose: 200.0 mg/kg/injection, schedule: Q04DX003 (ip), vehicle: saline with Tween-80
[17] = dose: 400.0 mg/kg/injection, schedule: Q04DX003 (ip), vehicle: saline with Tween-80

Measured: T/C

NCCc1ccc(Nc2ccnc3cc(Cl)ccc23)cc1
inactive: dose: 75.0 mg/kg/injection, schedule: Q01DX001 (ip), vehicle: saline 109 % of control | dose: 150.0 mg/kg/injection, schedule: Q01DX001 (ip), vehicle: saline 101 % of control | dose: 300.0 mg/kg/injection, schedule: Q01DX001 (ip), vehicle: saline 98 % of control

CCN(CCCl)c1ccc(N=Nc2cc(Cl)ccc2Cl)cc1
inactive: [1] 103 % of control | [2] 104 % of control | [3] 115 % of control | [4] 97 % of control | [5] 105 % of control | [6] 104 % of control

COc1ccc(CCCNCCCCCCNCCCc2ccc(OC)cc2)cc1
inactive: dose: 25.0 mg/kg/injection, schedule: Q01DX009 (ip), vehicle: Klucel (hydroxypropylcellulose) (HPC) 104 % of control | [7] 93 % of control | dose: 50.0 mg/kg/injection, schedule: Q04DX002 (ip), vehicle: Klucel (hydroxypropylcellulose) (HPC) 96 % of control | [1] 86 % of control | [8] 96 % of control

O=C(Nc1ccc(Cl)cc1Cl)P(=O)(O)c1ccccc1
inactive: [1] 92 % of control | [8] 101 % of control | [3] 103 % of control | dose: 200.0 mg/kg/injection, schedule: Q04DX002 (ip), vehicle: Klucel (hydroxypropylcellulose) (HPC) 90 % of control | [5] 92 % of control

O=C(O)c1cc(=O)c2c(OCC(O)COc3cccc4oc(C(=O)O)cc(=O)c34)cccc2o1
inactive: [9] 100 % of control | [10] 102 % of control | [11] 94 % of control

Nc1nc(=S)c2nnn(C3OC(CO)C(O)C3O)c2[nH]1 (stereo unspecified)
inactive: dose: 100.0 mg/kg/injection, schedule: Q01DX001 (ip), vehicle: saline with Tween-80 104 % of control | dose: 200.0 mg/kg/injection, schedule: Q01DX001 (ip), vehicle: saline with Tween-80 104 % of control | dose: 400.0 mg/kg/injection, schedule: Q01DX001 (ip), vehicle: saline with Tween-80 90 % of control

CCCCCC1(C)OCC(C)(C)N1O (stereo unspecified)
inactive: [9] 104 % of control | [10] 102 % of control | [11] 111 % of control

O=C(Oc1ccccc1)C(Cc1ccccc1)(Cc1ccccc1)C(=O)Oc1ccccc1
inactive: [12] 101 % of control | [13] 95 % of control | [14] 93 % of control

O=c1[nH][nH]c(=O)c2nc3ccccc3nc12
inactive: [1] 97 % of control | [2] 94 % of control | [3] 100 % of control | [4] 97 % of control | [5] 93 % of control | [6] 92 % of control

CCOC(=O)C(Cc1ccc(OCc2ccccc2)c(OCc2ccccc2)c1)(NC(C)=O)C(=O)OCC
inactive: dose: 100.0 mg/kg/injection, schedule: Q04DX003 (ip), vehicle: other 102 % of control | dose: 200.0 mg/kg/injection, schedule: Q04DX003 (ip), vehicle: other 100 % of control | dose: 400.0 mg/kg/injection, schedule: Q04DX003 (ip), vehicle: other 98 % of control

COc1ccccc1N=NN(C)C
inactive: dose: 1.0 mg/kg/injection, schedule: Q01DX009 (ip), vehicle: Klucel (hydroxypropylcellulose) (HPC) 115 % of control | dose: 3.0 mg/kg/injection, schedule: Q01DX009 (ip), vehicle: Klucel (hydroxypropylcellulose) (HPC) 101 % of control | dose: 3.12 mg/kg/injection, schedule: Q01DX009 (ip), vehicle: Klucel (hydroxypropylcellulose) (HPC) 100 % of control | dose: 3.12 mg/kg/injection, schedule: Q04DX003 (ip), vehicle: Klucel (hydroxypropylcellulose) (HPC) 95 % of control | dose: 6.0 mg/kg/injection, schedule: Q01DX009 (ip), vehicle: Klucel (hydroxypropylcellulose) (HPC) 115 % of control | dose: 6.25 mg/kg/injection, schedule: Q01DX009 (ip), vehicle: Klucel (hydroxypropylcellulose) (HPC) 108 % of control | dose: 6.25 mg/kg/injection, schedule: Q04DX003 (ip), vehicle: Klucel (hydroxypropylcellulose) (HPC) 109 % of control | dose: 12.5 mg/kg/injection, schedule: Q01DX009 (ip), vehicle: Klucel (hydroxypropylcellulose) (HPC) 94 % of control | dose: 12.5 mg/kg/injection, schedule: Q04DX003 (ip), vehicle: Klucel (hydroxypropylcellulose) (HPC) 113 % of control

CCOC(=O)Nc1cccc(OC(=O)NC)c1
inactive: [15] 100 % of control | [16] 107 % of control | [17] 89 % of control

CC(=O)C1=CN(C(C)(C)C)COC1C (stereo unspecified)
inactive: [7] 104 % of control | [1] 95 % of control | [3] 110 % of control

O=[N+]([O-])c1ccc(/C=C/c2ccccc2Br)cc1
inactive: [1] 106 % of control | [2] 100 % of control | [3] 97 % of control | [4] 98 % of control | [5] 97 % of control | [6] 98 % of control

CNC1(Cc2ccc(F)cc2)CCC1
inactive: dose: 100.0 mg/kg/injection, schedule: Q01DX009 (ip), vehicle: saline 100 % of control

CCOC(COC(=O)c1ccccc1C(=O)O)c1ccccc1 (stereo unspecified)
inactive: [15] 94 % of control | [16] 97 % of control | [17] 92 % of control

COc1cccc(OC)c1CCO
inactive: dose: 50.0 mg/kg/injection, schedule: Q01DX001 (ip), vehicle: carboxymethylcellulose (CMC) 88 % of control | [12] 102 % of control | [13] 88 % of control | [14] 100 % of control

CC(C)N(C(=O)Nc1cccc(OC(=O)N(C)C)c1)C(C)C
inactive: [15] 94 % of control | [16] 88 % of control | [17] 96 % of control

Cc1cc(N=Nc2ccc(N(C)C)cc2)ccn1
inactive: [2] 101 % of control | [4] 102 % of control | [6] 91 % of control

CC(=O)C[n+]1ccccc1
inactive: [9] 106 % of control and 97 % of control | dose: 100.0 mg/kg/injection, schedule: Q01DX009 (ip), vehicle: acetone 96 % of control | [10] 100 % of control and 95 % of control | dose: 200.0 mg/kg/injection, schedule: Q01DX009 (ip), vehicle: acetone 105 % of control | [11] 89 % of control and 97 % of control | dose: 400.0 mg/kg/injection, schedule: Q01DX009 (ip), vehicle: acetone 89 % of control

Cc1ccc(/C=C2/COC/C(=C\c3ccc(C)cc3)C2=O)cc1
inactive: dose: 6.0 mg/kg/injection, schedule: Q01DX009 (ip), vehicle: saline 96 % of control | dose: 12.0 mg/kg/injection, schedule: Q01DX001 (ip), vehicle: saline 88 % of control | dose: 12.0 mg/kg/injection, schedule: Q01DX009 (ip), vehicle: saline 94 % of control | dose: 25.0 mg/kg/injection, schedule: Q01DX001 (ip), vehicle: saline 93 % of control | dose: 25.0 mg/kg/injection, schedule: Q01DX009 (ip), vehicle: saline 109 % of control
